In US10556865B2, “Synergistic herbicidal composition containing certain pyridine or pyrimidine carboxylic acids and certain cereal and rice herbicides” (Dow AgroSciences, LLC, priority 2007, dated 2020):
“And” between values parts separate entries of the source, which are not always exact repeats. Equal values may be shown once. Read-outs that look alike come from different tables or passages of the source.

Columns and labels:
Experiment in all cases: Postemergence herbicidal activity of mixtures in cereal crops (greenhouse, visual injury)
Type in all cases: in vivo
[1] = tested on: Russian thistle (Salsola iberica L; SASKR)
Method in brief: (§1)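 Greenhouse-grown plants at 2nd–3rd true leaf stage (14 h photoperiod, ~18/17 °C) sprayed postemergence at 187 L/ha with compound A or B (methyl ester or TEA/K salt) and a second cereal herbicide, alone and in two- or three-way mixtures. Visual injury (0–100%) scored versus solvent-blank controls after 20–22 days; expected mixture activity calculated by Colby's equation.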

[2] = tested on: black mustard (Brassica nigra L; BRSNI); conditions: Brassica, post-emergence, read-out: BRSNI Ob
Method in brief: as §1

[3] = tested on: cut-leaf geranium (Geranium dissectum L; GERDI)
Method in brief: as §1

[4] = tested on: ivy-leaved speedwell (Veronica hederifolia L; VERHE)
Method in brief: as §1

[5] = tested on: rigid ryegrass (Lolium rigidum L; LOLRI)
Method in brief: as §1

[6] = tested on: wild buckwheat (Polygonum convolvulus L; POLCO)
Method in brief: as §1

[7] = tested on: green foxtail (Setaria viridis L; SETVI)
Method in brief: as §1

[8] = tested on: lamb's-quarters (Chenopodium album L; CHEAL)
Method in brief: as §1

## COc1c(Cl)ccc(-c2cc(N)c(Cl)c(C(=O)O)n2)c1F [Compound A TEA, 4-amino-3-chloro-6-(4-chloro-2-fluoro-3-methoxyphenyl)pyridine-2-carboxylic acid]
[1]; 8.75 g/ha alone
  SASKR Ob: 80%
[1]; 17.5 g/ha alone
  SASKR Ob: 84%
[1]; 35 g/ha alone
  SASKR Ob: 87%
[1]; 70 g/ha alone
  SASKR Ob: 93%
[2]; 8.75 g/ha alone
  pest or weed control at 8.75 g/ha: 70%
[2]; 8.75 g/ha
  pest or weed control at 8.75 g/ha: 70%
[2]; 17.5 g/ha alone
  pest or weed control at 17.5 g/ha: 91%
[2]; 17.5 g/ha
  pest or weed control at 17.5 g/ha: 91%
[2]; 35 g/ha alone
  pest or weed control at 35 g/ha: 98%
[2]; 35 g/ha
  pest or weed control at 35 g/ha: 98%
[2]; 70 g/ha alone
  pest or weed control at 70 g/ha: 99%
[2]; 70 g/ha
  pest or weed control at 70 g/ha: 99%
[3]; 8.75 g/ha
  GERDI Ob: 50%
[3]; 8.75 g/ha alone
  GERDI Ob: 50% and 38%
[3]; 17.5 g/ha
  GERDI Ob: 55%
[3]; 17.5 g/ha alone
  GERDI Ob: 55% and 50%
[3]; 35 g/ha
  GERDI Ob: 65%
[3]; 35 g/ha alone
  GERDI Ob: 65% and 80%
[3]; 70 g/ha alone
  GERDI Ob: 78% and 85%
[4]; 8.75 g/ha
  VERHE Ob: 10%
[4]; 17.5 g/ha
  VERHE Ob: 20%
[4]; 35 g/ha
  VERHE Ob: 50%
[4]; 70 g/ha
  VERHE Ob: 75%
[5]; 35 g/ha, Table 12
  LOLRI Ob: 0%
[5]; 35 g/ha, Table 13
  LOLRI: 0%
[5]; 35 g/ha, Table 17
  LOLRI Ob: 0%
[5]; 35 g/ha, Table 19
  LOLRI: 0%
[5]; 70 g/ha, Table 12
  LOLRI Ob: 0%
[5]; 70 g/ha, Table 13
  LOLRI: 0%
[5]; 70 g/ha, Table 17
  LOLRI Ob: 0%
[5]; 70 g/ha, Table 19
  LOLRI: 0%
[5]; 140 g/ha, Table 12
  LOLRI Ob: 10%
[5]; 140 g/ha, Table 13
  LOLRI: 10%
[5]; 140 g/ha, Table 17
  LOLRI Ob: 10%
[5]; 140 g/ha, Table 19
  LOLRI: 10%
[6]; 8.75 g/ha
  POLCO Ob: 90%
[6]; 8.75 g/ha alone
  POLCO Ob: 90% and 76%
[6]; 17.5 g/ha
  POLCO Ob: 93%
[6]; 17.5 g/ha alone
  POLCO Ob: 93% and 88%
[6]; 35 g/ha
  POLCO Ob: 98%
[6]; 35 g/ha alone
  POLCO Ob: 98% and 96%
[6]; 70 g/ha
  POLCO Ob: 99%
[6]; 70 g/ha alone
  POLCO Ob: 99%

## COC(=O)c1nc(-c2ccc(Cl)c(OC)c2F)cc(N)c1Cl [Compound A Methyl, 4-amino-3-chloro-6-(4-chloro-2-fluoro-3-methoxyphenyl)pyridine-2-carboxylic acid methyl ester]
[7]; 17.5 g/ha, Table 1
  SETVI Ob: 70%
[7]; 35 g/ha, Table 1
  SETVI Ob: 75%
[7]; 35 g/ha, Table 7
  SETVI Ob: 77%
[7]; 70 g/ha, Table 1
  SETVI Ob: 80%
[7]; 70 g/ha, Table 7
  SETVI Ob: 82%
[7]; 140 g/ha, Table 7
  SETVI Ob: 91%
[8]; 17.5 g/ha
  CHEAL Ob: 90%
[8]; 35 g/ha
  CHEAL Ob: 90%
[8]; 70 g/ha
  CHEAL Ob: 95%
